Legend:
Test in all cases: combination Emax (second highest fraction inhibited in the dose matrix, 72 h); higher = more inhibition; extreme values may be limits of the assay
[1] = test system: 8305C (Thyroid Gland Carcinoma)
In short: (§1)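 Cell lines grown in DMEM/F12 or RPMI with 10% FBS were plated in 1536-well plates and held 24 hours at 37°C, 5% CO2 before 72 hours of exposure to two-drug dose matrices, with DMSO typically at 0.2%. CellTiter-Glo 2.0 luminescence gave viability, which was converted to inhibition. Vehicle wells were set to 0 and blank wells to 1. Combination Emax is the second-highest inhibition in the matrix, and Bliss excess is the observed combination effect minus the expected EA + EB − EA·EB, where EA and EB are the single-agent effects.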

[2] = test system: CTB-1 (B-Cell Non-Hodgkin's Lymphoma)
In short: as §1

[3] = test system: HDLM-2 (Hodgkin's Lymphoma)
In short: as §1

[4] = test system: HO-1-u-1 (Oral Cavity Carcinoma)
In short: as §1

[5] = test system: Hs-633T (Other Solid Carcinomas)
In short: as §1

[6] = test system: K5 (Thyroid Gland Carcinoma)
In short: as §1

[7] = test system: KARPAS-231 (B-Cell Non-Hodgkin's Lymphoma)
In short: as §1

[8] = test system: LB771-HNC (Head and Neck Carcinoma)
In short: as §1

[9] = test system: LU-139 (Small Cell Lung Carcinoma)
In short: as §1

[10] = test system: LoVo (Colorectal Carcinoma)
In short: as §1

[11] = test system: MHH-PREB-1 (B-Cell Non-Hodgkin's Lymphoma)
In short: as §1

Mewo (Melanoma) = test system: Mewo (Melanoma)
In short: as §1

NCI-H2795 (Mesothelioma) = test system: NCI-H2795 (Mesothelioma)
In short: as §1

[12] = test system: NCI-H69 (Small Cell Lung Carcinoma)
In short: as §1

[13] = test system: NCI-H747 (Colorectal Carcinoma)
In short: as §1

[14] = test system: OVCAR-8 (Ovarian Carcinoma)
In short: as §1

[15] = test system: RPMI-6666 (Non-Cancerous)
In short: as §1

[16] = test system: RT-112 (Bladder Carcinoma)
In short: as §1

[17] = test system: SU-DHL-6 (B-Cell Non-Hodgkin's Lymphoma)
In short: as §1

[18] = test system: SW1271 (Small Cell Lung Carcinoma)
In short: as §1

COc1cccc(OCCCN)c1-c1cc(Nc2cnc(C#N)cn2)n[nH]1 [Prexasertib] + CN(C)CCCOc1ccc(-c2ccc3ncc4c(c3c2)n(C2CCOCC2)c(=O)n4C)cn1 [AZD0156] (first compound max 1 µM, 7x7, partner max 1 µM)
combination Emax [1]: 0.737
combination Emax [2]: 0.96
combination Emax [3]: 0.512
combination Emax [4]: 0.975
combination Emax [5]: 0.908
combination Emax [6]: 0.767
combination Emax [7]: 0.979
combination Emax [8]: 0.587
combination Emax [9]: 0.505
combination Emax [10]: 0.896
combination Emax [11]: 0.974
combination Emax (Mewo (Melanoma)): 0.531
combination Emax (NCI-H2795 (Mesothelioma)): 0.789
combination Emax [12]: 0.582
combination Emax [13]: 0.37
combination Emax [14]: 0.988
combination Emax [15]: 0.977
combination Emax [16]: 0.975
combination Emax [17]: 0.642
combination Emax [18]: 0.678

COc1cccc(OCCCN)c1-c1cc(Nc2cnc(C#N)cn2)n[nH]1 [Prexasertib] + C[C@@H]1COCCN1C2=NC(=NC(=C2)C3(CC3)[S@](=N)(=O)C)C4=C5C=CNC5=NC=C4 [AZD6738] (first compound max 1 µM, 7x7, partner max 10 µM)
combination Emax [1]: 0.718
combination Emax [2]: 0.899
combination Emax [3]: 0.528
combination Emax [4]: 0.923
combination Emax [5]: 0.936
combination Emax [6]: 0.7
combination Emax [7]: 0.979
combination Emax [8]: 0.61
combination Emax [9]: 0.598
combination Emax [10]: 0.869
combination Emax [11]: 0.949
combination Emax (Mewo (Melanoma)): 0.479
combination Emax (NCI-H2795 (Mesothelioma)): 0.765
combination Emax [12]: 0.616
combination Emax [13]: 0.443
combination Emax [14]: 0.991
combination Emax [15]: 0.955
combination Emax [16]: 0.992
combination Emax [17]: 0.621
combination Emax [18]: 0.719

COc1cccc(OCCCN)c1-c1cc(Nc2cnc(C#N)cn2)n[nH]1 [Prexasertib] + Cc1cc2ncnn2cc1Nc1ncc2c(n1)n(C1CCOCC1)c(=O)n2C [AZD7648] (first compound max 1 µM, 7x7, partner max 10 µM)
combination Emax [1]: 0.724
combination Emax [2]: 0.922
combination Emax [3]: 0.583
combination Emax [4]: 0.993
combination Emax [5]: 0.948
combination Emax [6]: 0.704
combination Emax [7]: 0.984
combination Emax [8]: 0.596
combination Emax [9]: 0.504
combination Emax [10]: 0.879
combination Emax [11]: 0.947
combination Emax (Mewo (Melanoma)): 0.516
combination Emax (NCI-H2795 (Mesothelioma)): 0.765
combination Emax [12]: 0.583
combination Emax [13]: 0.396
combination Emax [14]: 0.984
combination Emax [15]: 0.959
combination Emax [16]: 0.95
combination Emax [17]: 0.629
combination Emax [18]: 0.678

— the supplement of paper PMC11061612
